Patent publication US8455439B2, “Antidotes for factor Xa inhibitors and methods of using the same in combination with blood coagulating agents” (Portola Pharmaceuticals, Inc., priority 2008, dated 2013)
“And” between values parts separate entries of the source, which are not always exact repeats. Identical values can stand only once.

Key:
pooled human plasma [1] = test: Prothrombin time (PT) clotting assay, MLA Electra 800 automatic coagulation timer; type: biochemical; conditions: 1 μM rivaroxaban alone (baseline 12.2 sec)
[2] = cited from earlier work
[3] = system: thrombin generation in human plasma; test: Thrombin generation assay in platelet poor or platelet rich plasma; type: biochemical; conditions: 250 nM betrixaban, at all rfVIIa concentrations tested (50-200 nM) with tissue factor; FIG. 4
Description: PRP and PPP were prepared by spinning the anticoagulated blood at ˜100× gravity or 1000× gravity for 20 minutes, respectively, at room temperature. 75-100 microliter (uL) plasma was mixed with CaCl2 and Z-Gly-Gly-Arg-aminomethylcoumarin (Z-GGR-AMC, a thrombin fluorogenic substrate). Tissue factor (Innovin, Dade Behring) was added to initiate the generation of thrombin. For a typical experiment, the reaction mixture contained 15 millimolar (mM) Ca^2+, 100 micromolar (μM) Z-GGR-AMC, and 0.1 nanomolar (nM) tissue factor (TF) (Innovin). Thrombin formation was monitored continuously at 37° C. by a fluorometric plate reader (Molecular Devices) measuring the relative fluorescence units (RFU). Inhibitor and antidote, when present, were pre-incubated with plasma for 20 minutes at room temperature before initiation of thrombin generation.
PRP and PPP were prepared by spinning the anticoagulated blood at ˜100× gravity or 1000× gravity for 20 minutes, respectively, at room temperature. […] Tissue factor (Innovin, Dade Behring) and CaCl2 were added to initiate the generation of thrombin. […] Thrombin formation was monitored continuously at 37° C. by a fluorometric plate reader (Molecular Devices) measuring the relative fluorescence units (RFU). […]

[4] = system: human platelet poor plasma; test: Clotting prolongation assay, 96-well plate format (OD405 turbidity change, aPTT reagent); type: biochemical; conditions: 125 nM betrixaban, no r-Antidote, no FX; FIG. 26
pooled human plasma [5] = test: aPTT clotting assay, MLA Electra 800 automatic coagulation timer; type: biochemical
Description: Two clotting assay formats were used to test the effects of factor Xa inhibitors and the antidote on clotting prolongation. […] In the second assay format, aPTT was measured with a conventional coagulation instrument (MLA Electra 800 automatic coagulation timer).
The effect of 1 antiXa Unit/mL LMWH on aPTT prolongation of plasma and the reversal of inhibitory effect was measured by a MLA Electra 800 Automatic coagulation timer. 100 μL pooled citrate anticoagulated human plasma was mixed with enoxaparin and different concentrations of antidote. Prior to measurement of clotting time, aPTT reagent (Actin FS, Dade Behring) and CaCl2 were added per manufacturer's instructions.

O=C(NC[C@H]1CN(c2ccc(N3CCOCC3=O)cc2)C(=O)O1)c1ccc(Cl)s1 [rivaroxaban]
PT (pooled human plasma [1]): 25 ± 0.4 s
peak plasma concentrations ([2]; clinically effective doses): ≤ 318 ng/ml and ≤ 730 nM
therapeutic concentrations ([2]; reported, Kubitza 2005): approximately 600 nM

[2-({4-[(dimethylamino)iminomethyl]phenyl}carbonylamino)-5-methoxyphenyl]-N-(5-chloro(2-pyridyl))carboxamide [betrixaban]
inhibition of fXa by betrixaban (thrombin generation) [3]: about 75%
effect on clotting time [4]: doubled the clotting time
aPTT (pooled human plasma [5]; 300 nM Betrixaban alone): 61.8 s
aPTT (pooled human plasma [5]; 400 nM Betrixaban alone (Table 17)): 66.3 s
aPTT (pooled human plasma [5]; 400 nM betrixaban alone (Example 17, baseline 25.5 sec)): 51.6 ± 0.4 s
extension of aPTT (pooled human plasma [5]; 400 nM betrixaban, FIG. 13): more than two folds

fIX: human plasma derived blood coagulation factor IX (Haematologic Technologies)
aPTT (pooled human plasma [5]; 258 nM fIX, 400 nM betrixaban): 43.8 s
correction of aPTT (pooled human plasma [5]; 258 nM fIX, 400 nM betrixaban): 15%
correction of aPTT (pooled human plasma [5]; 387 nM fIX, 400 nM betrixaban): 15%
effect on aPTT in human plasma (pooled human plasma [5]; fIX, absence of betrixaban, FIG. 25): slightly reduced aPTT
